Measurements as given in patent US20250295668A1, “METHODS FOR INDUCING COLANIC ACID BIOSYNTHESIS” (priority 2024, published 2025).

Test system: cps operon
Assay: Disk diffusion assay for cps induction, SG20781 cpsB::lacZ reporter
Type: cell-based, E. coli
Settings: SG20781, filter paper disks 10 or 100 μg, 24 hours at 37° C.
Procedure: For antibiotic screening targeting cps expression, the SG20781 strain (MC4100 lon+cpsB10::lacZ Mu-immλ) was used. The bacteria were cultured overnight at 37° C. in Luria-Broth (LB) medium and evenly plated on X-gal (40 μg/mL) supplemented LB agar plates, and incubated overnight.
E. coli strain SG20781 was used to assess antibiotic cps induction via disk diffusion as previously described [PMID: 14553918]. In brief, an overnight bacteria culture was spread onto LB agar containing 0.1 mg ml-1 5-bromo-4-chloro-3-indolyl-β-D-galactoside (X-gal). […] The soaked filter papers were placed onto the bacteria-seeding plates and incubated for 24 hours at 37° C.
Certain β-lactam antibiotics trigger the overexpression of the cps operon in E. coli [PMID: 14553918]. To validate this finding, a disk diffusion assay was performed using SG20781, an E. coli strain that harbors a LacZ reporter for the cps operon transcriptional regulation. Using a colorimetric assay, an increased level of […] reacts with X-gal, resulting in an intensified blue coloration as a result of the transcriptional up-regulation of the cps operon.

## O=C(Cc1cccs1)N[C@@H]1C(=O)N2C(C(=O)[O-])=C(C[n+]3ccccc3)CS[C@H]12 [cephaloridine]
  cps induction (blue coloration): promote various shades of blue coloration
